Test results from US10626125B2, “1,1,1-trifluoro-3-hydroxypropan-2-yl carbamate derivatives as MAGL inhibitors” (PFIZER INC., priority 2017, dated 2020).
Where two headings read alike, the source gives them in different places.

Experiments:
[1] = biological target: T1, human recombinant Monoacylglycerol Lipase (Homo sapiens, UniProt Q99685); test: MAGL enzymatic assay (IC50; 7-HCA substrate added at T=0 min or T=30 min); assay type: biochemical
T1 sequence (Q99685 1-303): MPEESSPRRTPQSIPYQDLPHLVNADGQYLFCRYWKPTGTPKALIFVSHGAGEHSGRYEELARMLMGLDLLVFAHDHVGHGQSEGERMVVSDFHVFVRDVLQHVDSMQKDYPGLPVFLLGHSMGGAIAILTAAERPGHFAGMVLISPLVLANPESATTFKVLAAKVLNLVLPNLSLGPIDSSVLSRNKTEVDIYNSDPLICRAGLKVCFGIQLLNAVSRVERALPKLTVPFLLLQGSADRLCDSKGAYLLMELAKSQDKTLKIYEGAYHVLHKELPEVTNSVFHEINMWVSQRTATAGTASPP

[2] = biological target: T1, human recombinant Monoacylglycerol Lipase; test: MAGL inactivation (kinact/KI from enzyme progress curves, T=0 min protocol); details: from plot of Kobs vs. compound concentration, geometric mean of 2-5 determinations (b: ≥6)
[3] = MAGL (T = 30 min) IC50, substrate 7-HCA added after 30 minute incubation (T=30 min), geometric mean of 2-5 determinations unless otherwise indicated
[4] = substrate 7-HCA added immediately (T=0 min), geometric mean of 2-5 determinations unless otherwise indicated, read-out: MAGL (T = 0 min) IC50
[5] = MAGL (T=30 min) IC50, 30 minute incubation of compound with MAGL enzyme before addition of 7-HCA substrate
[6] = read-out: MAGL (T=30 min) IC50, 30 minute incubation of compound with MAGL enzyme before addition of 7-HCA substrate

Row | Structure (SMILES) | IC50 [1, 3] [nM] | IC50 [1, 4] [nM] | IC50 [1, 6] [nM] | further results
1 | O=C(O[C@H](CO)C(F)(F)F)N1CCC2(CC1)CC(n1cc(C3CC3)cn1)CO2 (mixture of isomers) [Example 23, (2R)-1,1,1-trifluoro-3-hydroxypropan-2-yl 3-(4-cyclopropyl-1H-pyrazol-1-yl)-1-oxa-8-azaspiro[4.5]decane-8-carboxylate, mixture of diastereomers] | 9 | 68 |  | MAGL kinact/KI [2]: 9650 1/s per M
2 | O=C(O[C@H](CO)C(F)(F)F)N1CCC2(CC1)CC(Cn1cc(C(F)(F)F)cn1)CO2 (single isomer, unassigned) [Example 3] | 7 | 47 |  | MAGL kinact/KI [2]: 10300 1/s per M
3 | O=C(O[C@H](CO)C(F)(F)F)N1CCC2(CC1)CC(Cn1cc(C(F)(F)F)cn1)CO2 (single isomer, unassigned) [Example 4] | 8 | 65 |  | MAGL kinact/KI [2]: 4710 1/s per M
4 | O=C(O[C@H](CO)C(F)(F)F)N1CCC2(CC1)CC(n1cc(C(F)(F)F)cn1)CO2 (single isomer, unassigned) [Example 8] | 16 | 172 |  | MAGL kinact/KI [2]: 2880 1/s per M
5 | O=C(O[C@H](CO)C(F)(F)F)N1CCC2(CC1)CC(n1cc(C(F)(F)F)cn1)CO2 (single isomer, unassigned) [Example 9] | 3 | 16 |  | MAGL kinact/KI [2]: 32800 1/s per M
6 | O=C(O[C@H](CO)C(F)(F)F)N1CCC2(CC1)CC(c1cccc(C(F)(F)F)n1)CO2 (single isomer, unassigned) [Example 14] | 1 | 5 |  | MAGL kinact/KI [2]: 124000^b 1/s per M
7 | O=C(O[C@H](CO)C(F)(F)F)N1CCC2(CC1)CC(c1cccc(C(F)(F)F)n1)CO2 (single isomer, unassigned) [Example 15] | 7 | 67 |  | MAGL kinact/KI [2]: 8230 1/s per M
8 | O=C(O[C@H](CO)C(F)(F)F)N1CCC2(CC1)CC(c1ccc(F)cn1)CO2 (single isomer, unassigned) [Example 16] | 9 | 92 |  | MAGL kinact/KI [2]: 5010^b 1/s per M
9 | O=C(O[C@H](CO)C(F)(F)F)N1CCC2(CC1)CC(c1ccc(F)cn1)CO2 (single isomer, unassigned) [Example 17] | 26 | 297 |  | MAGL kinact/KI [2]: 1390^b 1/s per M
10 | O=C(O[C@H](CO)C(F)(F)F)N1CCC2(CC1)CC(n1cc(C(F)F)cn1)CO2 (single isomer, unassigned) [Example 20] | 11 | 107 |  | MAGL kinact/KI [2]: 7170 1/s per M
11 | CC(C)(C)c1cnn(C2COC3(CCN(C(=O)O[C@H](CO)C(F)(F)F)CC3)C2)c1 (single isomer, unassigned) [Example 21] | 2 | 9 |  | MAGL kinact/KI [2]: 24400 1/s per M
12 | CN(C1CCOC2(CCN(C(=O)O[C@H](CO)C(F)(F)F)CC2)C1)S(=O)(=O)CC1CC1 (single isomer, unassigned) [Example 50] | 67 | 752 |  | 
13 | O=C(O[C@H](CO)C(F)(F)F)N1CCC2(CC1)CC(n1cc(C(F)F)cn1)CO2 (single isomer, unassigned) [diastereomer of Example 20] |  |  |  | IC50 [1, 5]: 65 nM
14 | CC(C)(C)c1cnn(C2COC3(CCN(C(=O)OC(CO)C(F)(F)F)CC3)C2)c1 (single isomer, unassigned) [diastereomer of Example 21] |  |  | 7 | 
15 | O=C(OC(CO)C(F)(F)F)N1CCC2(CC1)CC(n1cc(Cl)cn1)CO2 (single isomer, unassigned) [diastereomer of Example 22] |  |  | 23 | 
16 | Cc1cnn(C2COC3(CCN(C(=O)O[C@H](CO)C(F)(F)F)CC3)C2)c1 (single isomer, unassigned) [diastereomer of Example 24] |  |  | 60 | 
17 | N#Cc1cc(C2COC3(CCN(C(=O)OC(CO)C(F)(F)F)CC3)C2)ccc1F (single isomer, unassigned) [diastereomer of Example 28] |  |  | 14 | 
18 | N#Cc1ccc(C2COC3(CCN(C(=O)O[C@H](CO)C(F)(F)F)CC3)C2)cc1 (single isomer, unassigned) [diastereomer of Example 31] |  |  | 23 | 
19 | O=C(O[C@H](CO)C(F)(F)F)N1CCC2(CC1)CC(c1c(F)cccc1F)CO2 (single isomer, unassigned) [diastereomer of Example 32] |  |  |  | IC50 [1, 5]: 1 nM
20 | O=C(OC(CO)C(F)(F)F)N1CCC2(CC1)CC(c1ccc(F)cc1F)CO2 (single isomer, unassigned) [diastereomer of Example 33] |  |  | 2 | 
21 | O=C(OC(CO)C(F)(F)F)N1CCC2(CC1)CC(c1ccc(F)cc1)CO2 (single isomer, unassigned) [diastereomer of Example 34] |  |  | 1 | 

Row | Structure (SMILES) | IC50 [1, 3] [nM] | IC50 [1, 4] [nM] | IC50 [1, 6] [nM] | further results
22 | O=C(OC(CO)C(F)(F)F)N1CCC2(CC1)CC(c1cc(C(F)F)ccn1)CO2 (single isomer, unassigned) [diastereomer of Example 35] |  |  | 19 | 
23 | N#Cc1ccc(C2COC3(CCN(C(=O)OC(CO)C(F)(F)F)CC3)C2)nc1 (single isomer, unassigned) [diastereomer of Example 38] |  |  | 336 | 
24 | O=C(O[C@H](CO)C(F)(F)F)N1CCC2(CC1)CC(c1ccc(C(F)F)cn1)CO2 (single isomer, unassigned) [diastereomer of Example 39] |  |  | 31 | 
25 | O=C(OC(CO)C(F)(F)F)N1CCC2(CC1)CC(c1ccc(C(F)(F)F)cn1)CO2 (single isomer, unassigned) [diastereomer of Example 40] |  |  | 9 | 
26 | O=C(OC(CO)C(F)(F)F)N1CCC2(CC1)CC(c1ccccn1)CO2 (single isomer, unassigned) [diastereomer of Example 41] |  |  | 20 | 
27 | CN(C1CCOC2(CCN(C(=O)OC(CO)C(F)(F)F)CC2)C1)S(=O)(=O)CC1CC1 (single isomer, unassigned) [diastereomer of Example 50] |  |  | 284 | 
28 | CC(C)(C)c1ccn(C2COC3(CCN(C(=O)OC(CO)C(F)(F)F)CC3)C2)n1 (single isomer, unassigned) [diastereomer of Example 52] |  |  | 4 | 
29 | O=C(OC(CO)C(F)(F)F)N1CCC2(CC1)CC(n1ccc(C(F)(F)F)n1)CO2 (single isomer, unassigned) [diastereomer of Example 53] |  |  | 9 | 
30 | Cc1cn(C2COC3(CCN(C(=O)OC(CO)C(F)(F)F)CC3)C2)nc1C (single isomer, unassigned) [diastereomer of Example 54] |  |  | 20 | 
31 | O=C(O[C@H](CO)C(F)(F)F)N1CCC2(CC1)CC(n1ncc3ccccc31)CO2 (single isomer, unassigned) [diastereomer of Example 62] |  |  | 49 | 
32 | O=C(OC(CO)C(F)(F)F)N1CCC2(CCC(n3cc(C(F)(F)F)cn3)CO2)CC1 (single isomer, unassigned) [diastereomer of Example 69] |  |  | 3 | 
33 | O=C(OC(CO)C(F)(F)F)N1CCC2(CCC(n3cc(F)cn3)CO2)CC1 (single isomer, unassigned) [diastereomer of Example 70] |  |  | 14 | 
34 | N#Cc1cccc(C2COC3(CCN(C(=O)O[C@H](CO)C(F)(F)F)CC3)C2)c1F (single isomer, unassigned) [diastereomer of Example 71] |  |  |  | IC50 [1, 5]: 8 nM
35 | N#Cc1ccc(C2COC3(CCN(C(=O)O[C@H](CO)C(F)(F)F)CC3)C2)c(F)c1 (single isomer, unassigned) [diastereomer of Example 72] |  |  |  | IC50 [1, 5]: 12 nM
36 | N#Cc1cccc(C2CCOC3(CCN(C(=O)OC(CO)C(F)(F)F)CC3)C2)c1 (single isomer, unassigned) [diastereomer of Example 73] |  |  | 74 | 
37 | O=C(OC(CO)C(F)(F)F)N1CCC2(CCC(c3ccc(F)cn3)CO2)CC1 (single isomer, unassigned) [diastereomer of Example 74] |  |  | 15 | 
38 | O=C(OC(CO)C(F)(F)F)N1CCC2(CCC(n3cc(C(F)F)cn3)CO2)CC1 (single isomer, unassigned) [diastereomer of Example 75] |  |  | 3 | 
39 | O=C(O[C@H](CO)C(F)(F)F)N1CCC2(CC1)C[C@H](n1cc(F)cn1)CO2 [Example 10, (2R)-1,1,1-Trifluoro-3-hydroxypropan-2-yl (3S)-3-(4-fluoro-1H-pyrazol-1-yl)-1-oxa-8-azaspiro[4.5]decane-8-carboxylate] | 49 | 563 |  | 
40 | O=C(O[C@H](CO)C(F)(F)F)N1CCC2(CC1)C[C@@H](n1cc(F)cn1)CO2 [Example 11, (2R)-1,1,1-Trifluoro-3-hydroxypropan-2-yl (3R)-3-(4-fluoro-1H-pyrazol-1-yl)-1-oxa-8-azaspiro[4.5]decane-8-carboxylate] | 15 | 211 |  | 
41 | O=C(O[C@H](CO)C(F)(F)F)N1CCC2(CC1)CC(Oc1ccc(C(F)F)nc1)C2 [Example 19, (2R)-1,1,1-Trifluoro-3-hydroxypropan-2-yl 2-{[6-(difluoromethyl)pyridin-3-yl]oxy}-7-azaspiro[3.5]nonane-7-carboxylate] | 1 | 8 |  | 
42 | N#Cc1ccc([C@@H]2COC3(CCN(C(=O)O[C@H](CO)C(F)(F)F)CC3)C2)cc1F [diastereomer of Example 27, (2R)-1,1,1-trifluoro-3-hydroxypropan-2-yl (3R)-3-(4-cyano-3-fluorophenyl)-1-oxa-8-azaspiro[4.5]decane-8-carboxylate] |  |  |  | IC50 [1, 5]: 17 nM
